Columns and labels:
U87MG cells = assay: Mitotic phenotype classification; assay type: cell-based; settings: 0.03 μM, 24 hours
Method: Distinct mitotic phenotypes are induced following inhibition of PLK1 and PLK4 in cells. […] Centriole assembly is controlled by PLK4, with inhibitors inducing a multipolar spindle phenotype due to centrosome defects which results in abnormal cyokinesis (Wong et al., 2015. Science 348(6239); 1155-1160). Cells were plated at 10 000/well in 96-well plates and incubated overnight. The following day atropisomer A-2 stocks in DMSO were diluted in medium then added to cells with a maximum final DMSO concentration on cells of 0.2%. Cells were incubated with the compound for 24 hours then fixed in 3.7% formaldeyde. Cells were permeabilised with 0.1% Triton X-100 then incubated with anti-phospho-histone H3 (Ser10) antibody (Abcam ab5176). The cells were washed with PBS then incubated with AlexaFluor 488 labelled goat anti-rabbit IgG (Invitrogen A11034) in the presence of 4 ug/ml Hoechst 33342 (Invitrogen H3570). Cells were washed in PBS then imaged on an Arrayscan VTi HCS instrument (Thermo Fisher) using the Target Activation V4 Bioapplication. A user-defined threshold was applied to identify mitotic cells based on the intensity of phospho-histone H3 staining. In a separate study, following the above protocol but using single compound concentrations of 0.03 μM for each of atropisomer A-1 and atropisomer A-2, the frequency of observed mitotic phenotypes in U87MG cells was manually assessed and classified into the following phenotypes: non-congressed chromosomes, multipolar spindles/abnormal cytokinesis, monopolar spindles, normal prometaphase, normal metaphase for each of A-1 and A-2.

[1] = molecular target: T1, panel of ninety-seven kinases (Homo sapiens, UniProt P08069); assay: DiscoverX KinomeScreen competition binding assay (kinase selectivity panel); settings: IGF1R; screened at 3000 nM
T1 construct: purchased DiscoverX; host or cells: E. coli (BL21-derived, T7 phage display) or HEK-293
Method: (§1) This has been investigated by testing atropisomer A-2 for off-target activity against a panel of ninety-seven kinases distributed across the kinome at a concentration of 3 μM using the DiscoverX KinomeScreen assay. The DiscoverX KinomeScreen assay is a site-directed competition binding assay which measures the binding affinity of a compound to a kinase, by use of a solid supported control compound which can bind or capture the kinases in solution. In the absence of a kinase-inhibitor test compound, all of the kinase will bind to the solid support. If a kinase-inhibitor test compound is added to the assay mix, the amount of kinase binding to the solid support will be reduced, the extent of reduction being dependent on the potency of the test compound as a kinase inhibitor. […] For most assays, kinase-tagged T7 phage strains were grown in parallel in 24-well blocks in an E. coli host derived from the BL21 strain. E. coli were grown to log-phase and infected with T7 phage from a frozen stock (multiplicity of infection=0.4) and incubated with shaking at 32° C. until lysis (90-150 minutes). The lysates were centrifuged (6,000×g) and filtered (0.2 μm) to remove cell debris. The remaining kinases were produced in HEK-293 cells and subsequently tagged with DNA for qPCR detection. Streptavidin-coated magnetic beads were treated with biotinylated small molecule ligands for 30 minutes at room temperature to generate affinity resins for kinase assays. The liganded beads were blocked with excess biotin and washed with blocking buffer (SeaBlock (Pierce), 1% BSA, 0.05% Tween 20, 1 mM DTT) to remove unbound ligand and to reduce non-specific phage binding. […] Test compounds were prepared as 40× stocks in 100% DMSO and directly diluted into the assay. All reactions were performed in polypropylene 384-well plates in a final volume of 0.02 ml. […] The beads were then re-suspended in elution buffer (1×PBS, 0.05% Tween 20, 0.5 μM non-biotinylated affinity ligand) and incubated at room temperature with shaking for 30 minutes. The kinase concentration in the eluates was measured by qPCR. Compounds that bind the kinase active site and directly (sterically) or indirectly (allosterically) prevent kinase binding to the immobilized ligand, will reduce the amount of kinase captured on the solid support. […] The strength of binding of the test molecule to the kinase can be expressed as the percent control (% Ctrl) The compound(s) were screened at 3000 nM concentration, and results for primary screen binding interactions are reported as ‘% Ctrl’, where lower numbers indicate stronger hits in the matrix on the following page(s). [formula] • negative control=DMSO (100% Ctrl) • positive control=control compound (0% Ctrl)

[2] = molecular target: T2, panel of ninety-seven kinases (Homo sapiens, UniProt O96013); assay: as above; settings: PAK4; screened at 3000 nM
T2 construct: purchased DiscoverX; host or cells: E. coli (BL21-derived, T7 phage display) or HEK-293
Method: as §1

[3] = molecular target: T3, panel of ninety-seven kinases (Homo sapiens, UniProt P42336); assay: as above; settings: PIK3CA; screened at 3000 nM
T3 construct: purchased DiscoverX; host or cells: E. coli (BL21-derived, T7 phage display) or HEK-293
Method: as §1

[4] = molecular target: T4, panel of ninety-seven kinases (Homo sapiens, UniProt P43403); assay: as above; settings: ZAP70; screened at 3000 nM
T4 construct: purchased DiscoverX; host or cells: E. coli (BL21-derived, T7 phage display) or HEK-293
Method: as §1

[5] = molecular target: T5, panel of ninety-seven kinases (Homo sapiens, UniProt Q16539); assay: as above; settings: MAPK14; screened at 3000 nM
T5 construct: purchased DiscoverX; host or cells: E. coli (BL21-derived, T7 phage display) or HEK-293
Method: as §1

[6] = molecular target: T6, panel of ninety-seven kinases (Homo sapiens, UniProt Q9H4B4); assay: as above; settings: PLK3; screened at 3000 nM
T6 construct: purchased DiscoverX; host or cells: E. coli (BL21-derived, T7 phage display) or HEK-293
Method: as §1

[7] = molecular target: T7, panel of ninety-seven kinases (Homo sapiens, UniProt Q13873); assay: as above; settings: BMPR2; screened at 3000 nM
T7 construct: purchased DiscoverX; host or cells: E. coli (BL21-derived, T7 phage display) or HEK-293
Method: as §1

[8] = molecular target: T8, panel of ninety-seven kinases (Homo sapiens, UniProt Q9BUB5); assay: as above; settings: MKNK1; screened at 3000 nM
T8 construct: purchased DiscoverX; host or cells: E. coli (BL21-derived, T7 phage display) or HEK-293
Method: as §1

[9] = molecular target: T9, panel of ninety-seven kinases (Homo sapiens, UniProt Q06187); assay: as above; settings: BTK; screened at 3000 nM
T9 construct: purchased DiscoverX; host or cells: E. coli (BL21-derived, T7 phage display) or HEK-293
Method: as §1

[10] = molecular target: T10, panel of ninety-seven kinases (Homo sapiens, UniProt P48730); assay: as above; settings: CSNK1D; screened at 3000 nM
T10 construct: purchased DiscoverX; host or cells: E. coli (BL21-derived, T7 phage display) or HEK-293
Method: as §1

[11] = molecular target: T11, panel of ninety-seven kinases (Homo sapiens, UniProt P31749); assay: as above; settings: AKT1; screened at 3000 nM
T11 construct: purchased DiscoverX; host or cells: E. coli (BL21-derived, T7 phage display) or HEK-293
Method: as §1

[12] = molecular target: T12, panel of ninety-seven kinases (Homo sapiens, UniProt Q86UX6); assay: as above; settings: STK32C; screened at 3000 nM
T12 construct: purchased DiscoverX; host or cells: E. coli (BL21-derived, T7 phage display) or HEK-293
Method: as §1

PLK1 (catalytic domain) = molecular target: T13, PLK1 (catalytic domain) (Homo sapiens, UniProt P53350); assay: DiscoverX KinomeScreen competition binding assay
T13 construct: purchased DiscoverX; host or cells: E. coli (BL21-derived, T7 phage display) or HEK-293
Method: as §1

PLK4 (catalytic domain) = molecular target: T14, PLK4 (catalytic domain) (Homo sapiens, UniProt O00444); assay: DiscoverX KinomeScreen competition binding assay
T14 construct: purchased DiscoverX; host or cells: E. coli (BL21-derived, T7 phage display) or HEK-293
Method: as §1

[13] = 3 μM (3000 nM), lower = stronger binding, read-out: % Control

T14 sequence (O00444 12-265 limits assumed): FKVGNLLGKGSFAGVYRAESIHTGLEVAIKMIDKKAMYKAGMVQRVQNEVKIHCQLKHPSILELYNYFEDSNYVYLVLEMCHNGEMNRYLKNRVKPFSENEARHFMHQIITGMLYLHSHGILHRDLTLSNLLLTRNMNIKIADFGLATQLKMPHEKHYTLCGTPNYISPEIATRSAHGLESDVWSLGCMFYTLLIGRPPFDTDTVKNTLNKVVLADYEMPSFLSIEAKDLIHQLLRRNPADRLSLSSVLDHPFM
T13 sequence (P53350 53-305 limits assumed): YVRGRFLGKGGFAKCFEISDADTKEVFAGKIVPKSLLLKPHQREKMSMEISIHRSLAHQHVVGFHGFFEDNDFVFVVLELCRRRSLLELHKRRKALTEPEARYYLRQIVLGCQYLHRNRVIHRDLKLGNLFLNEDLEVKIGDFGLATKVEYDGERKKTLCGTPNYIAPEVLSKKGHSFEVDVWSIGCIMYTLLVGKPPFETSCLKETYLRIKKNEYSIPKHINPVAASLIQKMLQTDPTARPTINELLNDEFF
T1 sequence (P08069 31-1367): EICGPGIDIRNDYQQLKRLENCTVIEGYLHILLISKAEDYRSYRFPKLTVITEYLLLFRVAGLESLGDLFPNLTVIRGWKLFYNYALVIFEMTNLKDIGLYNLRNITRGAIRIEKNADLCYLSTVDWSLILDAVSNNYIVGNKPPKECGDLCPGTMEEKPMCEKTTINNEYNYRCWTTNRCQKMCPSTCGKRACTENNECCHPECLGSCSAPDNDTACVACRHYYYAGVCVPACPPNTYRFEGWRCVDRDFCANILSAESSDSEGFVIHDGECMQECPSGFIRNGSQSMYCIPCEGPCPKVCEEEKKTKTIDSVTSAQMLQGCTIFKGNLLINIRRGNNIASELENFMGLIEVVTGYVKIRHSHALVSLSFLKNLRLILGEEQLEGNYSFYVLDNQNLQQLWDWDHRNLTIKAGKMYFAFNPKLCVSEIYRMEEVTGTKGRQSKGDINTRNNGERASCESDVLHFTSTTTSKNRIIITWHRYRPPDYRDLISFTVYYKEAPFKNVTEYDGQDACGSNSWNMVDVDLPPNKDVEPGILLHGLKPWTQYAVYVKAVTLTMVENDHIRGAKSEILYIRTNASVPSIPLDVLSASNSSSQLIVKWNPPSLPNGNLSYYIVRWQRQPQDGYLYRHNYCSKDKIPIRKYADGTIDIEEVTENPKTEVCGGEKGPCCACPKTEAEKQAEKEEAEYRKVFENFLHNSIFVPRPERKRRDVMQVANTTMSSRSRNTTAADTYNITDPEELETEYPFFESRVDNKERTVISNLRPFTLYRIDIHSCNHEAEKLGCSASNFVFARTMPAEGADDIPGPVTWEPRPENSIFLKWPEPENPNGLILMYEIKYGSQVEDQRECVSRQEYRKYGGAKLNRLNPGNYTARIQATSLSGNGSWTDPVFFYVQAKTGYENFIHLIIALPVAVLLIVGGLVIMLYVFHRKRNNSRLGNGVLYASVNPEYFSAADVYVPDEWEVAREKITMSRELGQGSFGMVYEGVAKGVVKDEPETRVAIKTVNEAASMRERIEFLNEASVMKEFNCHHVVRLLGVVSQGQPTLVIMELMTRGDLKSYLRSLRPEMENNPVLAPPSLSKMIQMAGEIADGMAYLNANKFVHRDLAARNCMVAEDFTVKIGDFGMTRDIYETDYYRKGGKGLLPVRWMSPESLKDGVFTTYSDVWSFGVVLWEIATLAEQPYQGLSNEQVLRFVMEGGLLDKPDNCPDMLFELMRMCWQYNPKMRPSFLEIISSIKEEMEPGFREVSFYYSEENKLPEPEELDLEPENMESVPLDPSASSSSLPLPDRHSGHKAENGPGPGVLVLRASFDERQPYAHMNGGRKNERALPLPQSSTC
T10 sequence (P48730 whole entry): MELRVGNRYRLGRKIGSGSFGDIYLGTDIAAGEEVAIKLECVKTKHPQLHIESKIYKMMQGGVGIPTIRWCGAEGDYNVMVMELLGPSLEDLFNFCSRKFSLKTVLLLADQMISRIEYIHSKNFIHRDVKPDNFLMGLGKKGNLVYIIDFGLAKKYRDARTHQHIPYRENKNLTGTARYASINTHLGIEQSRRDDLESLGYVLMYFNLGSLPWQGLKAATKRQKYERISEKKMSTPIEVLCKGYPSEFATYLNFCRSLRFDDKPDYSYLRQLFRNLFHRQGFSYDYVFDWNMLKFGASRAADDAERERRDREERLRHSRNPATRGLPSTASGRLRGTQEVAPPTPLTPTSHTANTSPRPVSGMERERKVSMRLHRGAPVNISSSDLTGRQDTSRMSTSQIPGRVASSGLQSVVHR
T12 sequence (Q86UX6 whole entry): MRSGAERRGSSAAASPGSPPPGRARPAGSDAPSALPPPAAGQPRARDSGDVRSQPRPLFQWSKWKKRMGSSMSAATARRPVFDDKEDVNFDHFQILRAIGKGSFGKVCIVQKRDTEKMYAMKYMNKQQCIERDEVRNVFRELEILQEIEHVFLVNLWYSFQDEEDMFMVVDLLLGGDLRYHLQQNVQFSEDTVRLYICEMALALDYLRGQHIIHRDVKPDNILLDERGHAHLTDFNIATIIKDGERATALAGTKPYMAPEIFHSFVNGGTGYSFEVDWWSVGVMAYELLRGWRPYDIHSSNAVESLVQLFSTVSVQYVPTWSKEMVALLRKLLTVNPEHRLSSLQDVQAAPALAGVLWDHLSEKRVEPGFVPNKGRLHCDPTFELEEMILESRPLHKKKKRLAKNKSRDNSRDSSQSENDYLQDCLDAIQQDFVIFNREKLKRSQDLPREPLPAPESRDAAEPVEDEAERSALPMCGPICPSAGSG
T4 sequence (P43403 whole entry): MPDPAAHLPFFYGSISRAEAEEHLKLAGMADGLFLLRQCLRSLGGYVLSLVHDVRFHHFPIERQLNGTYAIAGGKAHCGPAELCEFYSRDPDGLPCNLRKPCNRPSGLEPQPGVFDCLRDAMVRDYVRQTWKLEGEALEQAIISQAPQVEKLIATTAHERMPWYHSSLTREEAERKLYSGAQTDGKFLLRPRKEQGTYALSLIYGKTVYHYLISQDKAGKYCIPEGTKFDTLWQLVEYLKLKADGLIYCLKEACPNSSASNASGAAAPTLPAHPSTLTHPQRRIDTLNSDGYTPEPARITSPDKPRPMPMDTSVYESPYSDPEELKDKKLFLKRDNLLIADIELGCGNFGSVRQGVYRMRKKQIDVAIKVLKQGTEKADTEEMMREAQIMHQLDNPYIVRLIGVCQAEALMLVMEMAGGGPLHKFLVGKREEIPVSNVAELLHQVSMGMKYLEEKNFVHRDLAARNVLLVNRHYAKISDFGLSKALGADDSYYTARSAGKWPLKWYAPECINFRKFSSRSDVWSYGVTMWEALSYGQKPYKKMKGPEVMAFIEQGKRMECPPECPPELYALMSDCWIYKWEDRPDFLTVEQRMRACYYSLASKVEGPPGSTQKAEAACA
T9 sequence (Q06187 whole entry): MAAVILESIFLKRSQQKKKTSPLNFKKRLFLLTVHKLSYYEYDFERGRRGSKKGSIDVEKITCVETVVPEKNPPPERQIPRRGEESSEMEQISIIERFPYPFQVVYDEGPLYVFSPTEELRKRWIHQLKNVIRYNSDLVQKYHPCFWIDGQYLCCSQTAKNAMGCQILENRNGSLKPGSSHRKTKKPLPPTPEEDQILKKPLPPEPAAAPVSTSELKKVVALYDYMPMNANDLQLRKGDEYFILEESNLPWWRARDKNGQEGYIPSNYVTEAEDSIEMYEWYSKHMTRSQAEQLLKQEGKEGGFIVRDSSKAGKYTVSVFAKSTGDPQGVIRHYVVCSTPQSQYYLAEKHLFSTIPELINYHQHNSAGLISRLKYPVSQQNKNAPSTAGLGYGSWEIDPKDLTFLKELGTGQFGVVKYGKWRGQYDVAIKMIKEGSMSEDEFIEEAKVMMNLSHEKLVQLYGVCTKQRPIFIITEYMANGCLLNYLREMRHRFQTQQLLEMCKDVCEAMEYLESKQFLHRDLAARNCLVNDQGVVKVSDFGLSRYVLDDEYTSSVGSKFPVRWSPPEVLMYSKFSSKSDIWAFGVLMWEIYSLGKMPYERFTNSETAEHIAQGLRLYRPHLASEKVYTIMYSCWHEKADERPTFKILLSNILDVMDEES
T7 sequence (Q13873 27-1038): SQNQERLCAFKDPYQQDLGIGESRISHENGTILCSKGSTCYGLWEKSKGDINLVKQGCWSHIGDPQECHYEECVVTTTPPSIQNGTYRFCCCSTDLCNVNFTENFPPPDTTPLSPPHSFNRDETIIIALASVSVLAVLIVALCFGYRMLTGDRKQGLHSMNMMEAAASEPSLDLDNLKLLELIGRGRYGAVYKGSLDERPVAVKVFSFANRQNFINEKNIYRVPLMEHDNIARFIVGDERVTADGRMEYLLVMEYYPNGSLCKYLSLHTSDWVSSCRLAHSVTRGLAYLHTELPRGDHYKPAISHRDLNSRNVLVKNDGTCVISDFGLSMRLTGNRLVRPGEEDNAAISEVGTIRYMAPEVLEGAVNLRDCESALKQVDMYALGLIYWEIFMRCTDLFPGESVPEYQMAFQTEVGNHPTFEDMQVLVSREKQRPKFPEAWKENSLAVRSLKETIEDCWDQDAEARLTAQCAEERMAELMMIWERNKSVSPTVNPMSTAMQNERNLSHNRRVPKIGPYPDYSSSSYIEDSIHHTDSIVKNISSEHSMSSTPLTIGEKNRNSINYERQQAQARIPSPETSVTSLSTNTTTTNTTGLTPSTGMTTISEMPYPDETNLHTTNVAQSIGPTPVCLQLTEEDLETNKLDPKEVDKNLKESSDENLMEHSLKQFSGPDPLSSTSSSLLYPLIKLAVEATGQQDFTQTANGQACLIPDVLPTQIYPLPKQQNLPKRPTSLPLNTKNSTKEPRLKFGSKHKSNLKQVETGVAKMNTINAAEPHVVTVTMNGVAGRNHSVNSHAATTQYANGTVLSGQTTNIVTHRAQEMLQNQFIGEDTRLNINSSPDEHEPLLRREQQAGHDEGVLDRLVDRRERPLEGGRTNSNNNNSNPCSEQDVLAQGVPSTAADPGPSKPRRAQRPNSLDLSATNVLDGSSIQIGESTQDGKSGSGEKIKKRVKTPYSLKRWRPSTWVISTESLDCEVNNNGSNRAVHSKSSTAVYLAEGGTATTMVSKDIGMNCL

Compound	cells with abnormal cytokinesis (U87MG cells) [%]	cells with non-congressed chromosomes (U87MG cells)	cells with normal mitotic phenotype (U87MG cells) [%]	% Ctrl @ 3 μM [1] [% Ctrl]	% Ctrl @ 3 μM [2] [% Ctrl]	% Ctrl @ 3 μM [3] [% Ctrl]	% Ctrl @ 3 μM [4] [% Ctrl]	% Ctrl @ 3 μM [5] [% Ctrl]	% Ctrl @ 3 μM [6] [% Ctrl]	% Ctrl @ 3 μM [7] [% Ctrl]	% Ctrl @ 3 μM [8] [% Ctrl]	% Ctrl @ 3 μM [9] [% Ctrl]	% Ctrl @ 3 μM [10] [% Ctrl]	% Ctrl @ 3 μM [11] [% Ctrl]	% Ctrl @ 3 μM [12] [% Ctrl]	remaining binding at 3 µM (PLK1 (catalytic domain); [13]) [%]	% Ctrl @ 3 μM (PLK1 (catalytic domain); PLK1, screened at 3000 nM) [% Ctrl]	remaining binding at 3 µM (PLK4 (catalytic domain); [13]) [%]	% Ctrl @ 3 μM (PLK4 (catalytic domain); PLK4, screened at 3000 nM) [% Ctrl]
CN(C)CCNC(=O)c1ccc(-c2ccc(-c3ccc(Cl)cc3)n2-c2ccccc2C(F)(F)F)cc1 (single isomer, unassigned; atropisomer a) [Atropisomer A-1]	24	No evidence	76																
CN(C)CCNC(=O)c1ccc(-c2ccc(-c3ccc(Cl)cc3)n2-c2ccccc2C(F)(F)F)cc1 (single isomer, unassigned) [Atropisomer A-2]				100	100	100	92	100	87	82	92	94	91	98	100	97	97	100	100

From patent US12637424B2, “Pharmaceutical salt of an arylpyrrole derivative” (SENTINEL ONCOLOGY LIMITED, priority 2020, dated 2026)
